Reference: patent publication US7968107B2, “Oil-based suspension concentrates” (Bayer Cropscience AG, priority 2004, dated 2011)

test: Penetrants at the level of the cuticle (desorption method, tracer mobility with and without additive); settings: mobility of radiolabelled weak organic acid tracer in peach leaf cuticle; receptor buffer pH 7
Text: Additives which act as penetrants at the level of the cuticle may be referred to below as accelerator additives (cf. Schönherr and Baur, 1994, Pesticide Science 42, 185-208). The feature of accelerator additives is their ability to penetrate from the aqueous spray liquor and/or from the spray covering into the cuticle and thereby to increase the mobility of active substances in the cuticle. Other additives such as polyethylene glycol, in contrast, act only in the spray covering (via the liquid phase) or act only as wetting agents, such as sodium dodecyl sulphate, for example.
This test determines the influence of additives on the penetration properties of other substances at the level of the cuticle. The mobility of the test substance in the cuticle is measured with and without an additive, by way of a desorption method. The method is published in detail in the literature (Baur et al., 1997, Pesticide Science, 51, 131-152) and only the principles and any deviations are described below.
As a test substance with the function of a tracer a selection was made here of a radiolabelled weak organic acid. Plant material used comprised the enzymatically isolated leaf cuticles of the top face of peach leaves from outdoor trees. The cuticles were installed in specially manufactured stainless steel diffusion cells. The tracer, in a citrate buffer at a pH of 3 in the dissolved state, was applied to the side originally facing the inside of the leaf. This inner side readily takes up the small radioactive amount of the tracer in the undissociated acid form. Subsequently this inner side was covered and maintained at 100% atmospheric humidity. The morphological outer side of the leaf cuticle, normally exposed to the air, was then contacted with a buffer (pH 7), with the receptor solution, and the desorption was started. The penetrated acid form of the test substance is dissociated by the receptor and the desorption follows first-order kinetics. The desorption constant is proportional to the mobility of the tracer in the cuticle. […]

Substance | Average effect (ratio of desorption slopes with additive to without additive)
isotridecyl-(6) ethoxylate [Isotridecyl-(6) ethoxylate, open, reference compound] | 42.3
CH3—(CH2)10—O—(-EO—)6—(—BO—)2—CH3 [Ie-1] | 78.4
CH3—(CH2)8—O—(-EO—)8—(—BO—)2—CH3 [Ie-2] | 89.1
